Assays:
[1] = target: rat α-2,3-ST (Rattus norvegicus (Rat), UniProt Q02734); test: Inhibition constant (Ki) determination, Lineweaver-Burk plot, varying CMP-Neu5Ac; assay type: biochemical; settings: toward CMP-Neu5Ac
Procedure: Each compound was tested for α-2,3-ST inhibition using CMP-Neu5Ac as a substrate and a modified disaccharide with a 4,5-dimethoxy-2-nitrobenzyl group as a UV-labeled acceptor. Specifically, inhibition assays were performed in triplicate in reaction solution containing 200 mM MES buffer, 100 mM sodium chloride, 0.5 mM disodium-EDTA, 0.01% Triton X-100, 20 μM modified disaccharide, 1.4 mU α-2,3-ST and inhibitor (in dimethyl sulfoxide) in a total volume of 55. Reactions were incubated at 37° C. for 10 minutes at which point 1 mM CMP-Neu5Ac (to a final concentration 3 μM) was added. The solution was then incubated at 37° C. until a detectable amount of product was produced. The reaction was terminated by quenching the solution mixture with heat at 100° C. for 5 minutes. Enzyme activity was determined by monitoring the quantity of sialylated disaccharide product produced over time at 348 nm by RP-HPLC (Supelco Discovery® HS C18, 5 μm, 4.6 mm×25 cm). […]
Reactions were prepared in inhibition assay reaction solution described above and were incubated for 10 minutes after which 0.3, 0.15, and 0.037 mM CMP-Neu5Ac was added in the presence of inhibitor at 5, 4.5, 3.5, 2.5, and 0 μM. […] The absolute Ki value was determined from the horizontal intercept of a Lineweaver-Burk plot with […] on the vertical axis and inhibitor concentration on the horizontal axis (FIG. 1).

[2] = target: Rat liver α-2,3-ST (Rattus norvegicus (Rat), UniProt Q02734); test: α-2,3-ST inhibition assay (IC50), RP-HPLC of sialylated disaccharide product; assay type: biochemical; settings: for IC50: α-2,3-ST, CMP-Neu5Ac substrate, triplicate, read-out: IC50
Procedure: Compound synthesis was carried out with the following materials according the following general procedures. All chemicals and buffers were purchased from Sigma, Aldrich, or Acros Organics; and all amino acids were purchased from Advanced Chemtech. CMP-Neu5Ac was synthesized starting with sialic acid (Traving & Schauer, Cell. Mol. Life Sci., 1998, 54:1330; Schwarzkopf et al., Proc. Natl. Acad. Sci. USA, 2002, 99:5267). Synthesis of lactose acceptor was achieved as described in Harduin-Lepers et al., Biochimie, 2001, 83:727. Rat liver α-2,3-ST was obtained from CalBiochem at a concentration of 3.7 mU/μL, stored at −80° C., and used within one week. Melting points (m.p.) were recorded with a capillary melting point apparatus (Electrothermal MEL-TEMP); FT-IR spectra were recorded with Perkin Elmer FT-IR Spectrometer (Paragon 1000) in KBr pellets; ^1H and ^13C NMR spectra were recorded with Bruker AMX400 or 500 MHz instruments. Proton chemical shifts (δ) are reported in parts per million (ppm) relative to the methine singlet at 7.24 ppm for the residual CHCl3 in the deuteriochloroform, or the methyl pentet at 3.30 ppm for the residual CHD2OD in the methanol-d4. Carbon chemical shifts are reported in ppm relative to the internal ^13C signals in CDCl3 (77.0 ppm) and CD3OD-d4 (49.0 ppm). Mass spectra were obtained with a FAB JMS-700 double focusing mass spectrometer (JEOL, Tokyo, Japan), MALDI Voyager DE-PRO (Applied Biosystem Houston, USA), and ESI Finnigan LCQ mass spectrometer (Thermo Finnigan, San Jose, Calif., United States) in negative mode. […] The separation procedure was performed using H2O/0.1% trifluoroacetic acid (TFA) (A) and CH3CN/0.05% TFA (B) as eluents.
Each compound was tested for α-2,3-ST inhibition using CMP-Neu5Ac as a substrate and a modified disaccharide with a 4,5-dimethoxy-2-nitrobenzyl group as a UV-labeled acceptor. Specifically, inhibition assays were performed in triplicate in reaction solution containing 200 mM MES buffer, 100 mM sodium chloride, 0.5 mM disodium-EDTA, 0.01% Triton X-100, 20 μM modified disaccharide, 1.4 mU α-2,3-ST and inhibitor (in dimethyl sulfoxide) in a total volume of 55. Reactions were incubated at 37° C. for 10 minutes at which point 1 mM CMP-Neu5Ac (to a final concentration 3 μM) was added. The solution was then incubated at 37° C. until a detectable amount of product was produced. The reaction was terminated by quenching the solution mixture with heat at 100° C. for 5 minutes. Enzyme activity was determined by monitoring the quantity of sialylated disaccharide product produced over time at 348 nm by RP-HPLC (Supelco Discovery® HS C18, 5 μm, 4.6 mm×25 cm).

[3] = target: α-2,3-ST; settings: inhibition of α-2,3-ST, Hsu et al. 2005; cited from earlier work
[4] = test system: CL1-5 lung cancer cells; test: Wound healing (cell migration) assay; assay type: cell-based; settings: 10 μM, 48 hours, vs DMSO control
Procedure: A section of cells was then scraped from the culture plate to form a gap, and cell migration into the “wound” was observation over 48 hours in the continuous presence of α-2,3-ST inhibitor.

[5] = test system: CL1-5 lung cancer cells; test: Cytotoxicity / cell growth, trypan blue exclusion; assay type: cell-based; settings: 5 μM or 10 μM, 48 hours, FBS-free media
Procedure: To determine the effect of the synthesized membrane-permeable α-2,3-ST inhibitors disclosed in Example 1 on cellular processes, in vitro cytotoxicity and adhesion assays were performed on the highly metastatic lung cancer cell line CL1-5. CL1-5 cells were plated at 1×10^6 cells per 60 mm culture dish in DMEM containing 10% fetal bovine serum (FBS) in 5% CO2. The following day the media was replaced with FBS-free media containing inhibitors at 5 μM or 10 μM concentration in DMSO. Controls cells were treated with 0.1% DMSO-containing medium without inhibitor. Cell number and viability were determined 48 hours later by trypan blue exclusion. Treatment with three α-2,3-ST inhibitors, N-Pentyonic (compound 21), Lith-Triethyl-de (compound 20), and Lith-o-Asp (compound 13), inhibited CL1-5 cell growth by between 10-20% compared to control (FIG. 2A).

[6] = test system: α-2,3-sialylated antigens on CL1-1 cells; test: Cell surface α-2,3-sialylated antigens by FLOW cytometry (FITC-MAL), CL1-1; assay type: cell-based; settings: both 5 μM and 20 μM, five days
Procedure: (§1) To determine whether α-2,3-ST inhibition alters cell surface glycosylation, lung cancer cells were treated with Lith-o-Asp and cell surface α-2,3-sialylated antigens were detected by FLOW cytometry. Cells were treated with α-2,3-ST inhibitor for five days after which 1×10^6 lung cancer cells were collected and washed twice with Hank's balanced salt solution (HBSS). Collected cells were incubated with FITC-conjugated MAL (1:50) at 37° C. for 15-20 minutes, non-binding MAL was removed by washing with HBSS, and 3×10^4 cells were detected on a FACScalibur instrument (Becton Dickinson). Two different lung cancer cell lines were tested: CL1-1 with low metastatic potential and CL1-5 with high metastatic potential. Since CL1-5 cells were derived from the CL1-1 line by an in vitro matrix gel invasion assay (Chen et al., Cancer Res., 2001, 61:5223), these cell lines share the same genetic background. Treatment of CL1-1 cells with Lith-o-Asp reduced expression of α-2,3-sialylated antigens to around 15% of DMSO treated control cells at both 5 μM and 20 μM (FIG. 4A). In contrast, Lith-o-Asp inhibited the expression of cell surface α-2,3-sialylated antigens in the highly metastatic CL1-5 lung cancer cells in a dose-dependent manner of greater than 15% (FIG. 4B).

[7] = test system: α-2,3-sialylated antigens on CL1-5 cells; test: Cell surface α-2,3-sialylated antigens by FLOW cytometry (FITC-MAL), CL1-5; assay type: cell-based; settings: dose-dependent, five days
Procedure: as §1

Sequence of Rat liver α-2,3-ST (Q02734 whole entry): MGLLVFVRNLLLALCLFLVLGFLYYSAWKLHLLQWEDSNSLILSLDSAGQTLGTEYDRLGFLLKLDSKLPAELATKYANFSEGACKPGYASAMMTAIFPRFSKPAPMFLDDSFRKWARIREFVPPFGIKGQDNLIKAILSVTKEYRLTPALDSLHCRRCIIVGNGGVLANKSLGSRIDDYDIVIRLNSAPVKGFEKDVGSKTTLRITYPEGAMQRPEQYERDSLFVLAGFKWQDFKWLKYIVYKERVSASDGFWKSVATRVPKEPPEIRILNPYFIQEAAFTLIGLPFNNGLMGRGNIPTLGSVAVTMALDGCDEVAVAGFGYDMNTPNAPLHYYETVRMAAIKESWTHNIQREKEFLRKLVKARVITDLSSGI
Sequence of rat α-2,3-ST (Q02734 whole entry): as above

| Compound | Ki [1] [nM] | type of inhibition [1] | IC50 [2] [µM] | Ki [3] [mM] | fold potency over lithocholic acid ([2]; vs lithocholic acid) [fold] | migration ability of CL1-5 cells ([4]; listed as Lith-O-Asp) | migration ability of CL1-5 cells ([4]; listed as Lith-o-Asp) | inhibition of CL1-5 cell growth compared to control [5] | expression of α-2,3-sialylated antigens, % of DMSO treated control cells [6] | inhibition of expression of cell surface α-2,3-sialylated antigens [7] |
| --- | --- | --- | --- | --- | --- | --- | --- | --- | --- | --- |
| C[C@H](CCCn1cc(CCCC(=O)O)nn1)C1CC[C@H]2C3CC[C@@H]4C[C@H](O)CC[C@]4(C)C3CC[C@]12C (stereo partly drawn) [Compound 22, 4-(1-((R)-4-((3R,5R,10S,13R,14S)-3-hydroxy-10,13-dimethyl-hexadecahydro-1H-cyclopenta[a]phenanthren-17-yl)pentyl)-1H-1,2,3-triazol-4-yl)butanoic acid] | 2200 | noncompetitive inhibition | 5 |  |  |  |  |  |  |  |
| C[C@@H]1O[C@@H](O[C@H]2[C@H](O[C@H]3[C@H](O[C@H]4CC[C@@]5(C)[C@@H](CC[C@]6(C)[C@@H]5CC=C5[C@@H]7CC(C)(C)C[C@@H](O)[C@]7(C)CC[C@]56C)[C@@]4(C)CO)O[C@H](C(=O)O)[C@@H](O)[C@@H]3O)O[C@H](CO)[C@H](O)[C@@H]2O)[C@H](O)[C@H](O)[C@H]1O [Soyasaponin I] |  |  |  | 2.1 |  |  |  |  |  |  |
| C[C@H](CCC(=O)O)C1CC[C@H]2C3CC[C@@H]4C[C@H](OC(=O)[C@@H](N)CC(=O)O)CC[C@]4(C)C3CC[C@]12C (stereo partly drawn) [Compound 13, (R)-4-((3R,5R,10S,13R,14S)-3-((S)-2-amino-3-carboxypropanoyloxy)-10,13-dimethyl-hexadecahydro-1H-cyclopenta[a]phenanthren-17-yl)pentanoic acid] |  |  | 12 |  | 2 | inhibited cell migration | significantly decreased | 10-20% | around 15% | greater than 15% |

From US8940719B2, “Lithocholic acid analogues that inhibit sialyltransferase” (Academia Sinica, priority 2006, dated 2015)
